Common to all, as to type: in vivo
In experiment [1] the test system is Beet Armyworm (Spodoptera exigua). In words: Bioassay on Beet Armyworm (BAW), 128-well diet tray assay. Conditions: Beet Armyworm, Table ABC, read-out: BAW rating. The method in brief: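 Percent mortality, averaged over eight wells, was scored after five to seven days at 25° C under 14:10 light-dark. Each well's diet carried 50 μg/cm^2 of test molecule applied in acetone-water (90:10) and dried before one to five second-instar larvae were added.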

The test system of experiment [2] is Cabbage Looper (Trichoplusia ni). In words: Bioassay on Cabbage Looper (CL), 128-well diet tray assay. Conditions: Cabbage Looper, Table ABC, read-out: CL rating. The method in brief:
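Mortality after five to seven days at 25° C (14:10 photoperiod), averaged over eight wells per compound. Diet in each well carried 50 μg/cm^2 of dried test molecule and received one to five second-instar larvae.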

The subject of experiment [3] is Yellow Fever Mosquito (Aedes aegypti). In words: Bioassay on Yellow Fever Mosquito (YFM) larvae, 96-well plate. The note with it: Table ABC. An outline of the steps:
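About 1-day-old larvae in water with liver powder were added to wells holding compound from a 4000 ppm DMSO master diluted in 90:10 water:acetone. Plates covered and kept at room temperature for 3 days, then each well scored for mortality on a rating scale.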

Regarding `Cc1cc(C(/C=C(\F)c2ccc(C(=O)NCC(=O)N(C)CC(F)(F)F)c(C(F)(F)F)c2)C(F)(F)F)cc(C)c1Cl` (stereo not drawn) [F103, (Z)-4-(3-(4-Chloro-3,5-dimethylphenyl)-1,4,4,4-tetrafluorobut-1-en-1-yl)-N-(2-(methyl(2,2,2-trifluoroethyl)amino)-2-oxoethyl)-2-(trifluoromethyl)benzamide], the pest or weed control at 50 µg/cm2 in experiment [1] and in experiment [2] was 50 to 100% in each case. For the same compound, in experiment [3], the YFM rating result was “B (More than 0-Less than 80)”.
As for `C=Cc1c(Cl)cc(C(/C=C(\F)c2ccc(C(=O)NC3(C(=O)NCC(F)(F)F)CC3)c(C(F)(F)F)c2)C(F)(F)F)cc1Cl` (stereo not drawn) [F113, (Z)-4-(3-(3,5-Dichloro-4-vinylphenyl)-1,4,4,4-tetrafluorobut-1-en-1-yl)-N-(1-((2,2,2-trifluoroethyl)carbamoyl)cyclopropyl)-2-(trifluoromethyl)benzamide], the pest or weed control at 50 µg/cm2 in experiment [1] and in experiment [2] was 50 to 100% in each case. Further, the YFM rating result in experiment [3] was “A (80-100)”.
On to `CN(CC(F)(F)F)C(=O)C1(NC(=O)c2ccc(/C(F)=C/C(c3cc(Cl)c(F)c(Cl)c3)C(F)(F)F)cc2C(F)(F)F)CC1` (stereo not drawn) [F114, (Z)-4-(3-(3,5-Dichloro-4-fluorophenyl)-1,4,4,4-tetrafluorobut-1-en-1-yl)-N-(1-(methyl(2,2,2-trifluoroethyl)carbamoyl)cyclopropyl)-2-(trifluoromethyl)benzamide], for which the pest or weed control at 50 µg/cm2 in experiment [1] and in experiment [2] was 50 to 100% throughout. In addition, the YFM rating entry in experiment [3] is given as “A (80-100)”.
`CN(CC(F)(F)F)C(=O)C1(NC(=O)c2ccc(/C(F)=C/C(c3cc(Cl)cc(Cl)c3)C(F)(F)F)cc2C(F)(F)F)CC1` (stereo not drawn) [F115, (Z)-4-(3-(3,5-Dichlorophenyl)-1,4,4,4-tetrafluorobut-1-en-1-yl)-N-(1-(methyl(2,2,2-trifluoroethyl)carbamoyl)cyclopropyl)-2-(trifluoromethyl)benzamide]: the pest or weed control at 50 µg/cm2 in experiment [1] and in experiment [2] was 50 to 100% each time. In addition, the YFM rating entry in experiment [3] is “B (More than 0-Less than 80)”.
As for `O=C(NC1(C(=O)NCC(F)(F)F)CC1)c1ccc(/C(F)=C/C(c2cc(Cl)cc(Br)c2)C(F)(F)F)cc1C(F)(F)F` (stereo not drawn) [F116, (Z)-4-(3-(3-Bromo-5-chlorophenyl)-1,4,4,4-tetrafluorobut-1-en-1-yl)-N-(1-((2,2,2-trifluoroethyl)carbamoyl)cyclopropyl)-2-(trifluoromethyl)benzamide], the pest or weed control at 50 µg/cm2 in experiment [1] and in experiment [2] was 50 to 100% in each case. In addition, in experiment [3], the YFM rating entry is reported as “A (80-100)”.
For the compound `CN(CC(F)(F)F)C(=O)C1(NC(=O)c2ccc(/C(F)=C/C(c3cc(Br)c(Cl)c(Br)c3)C(F)(F)F)cc2C(F)(F)F)CC1` (stereo not drawn) [F118, (Z)-4-(3-(4-Dibromo-4-chlorophenyl)-1,4,4,4-tetrafluorobut-1-en-1-yl)-N-(1-(methyl(2,2,2-trifluoroethyl)carbamoyl)cyclopropyl)-2-(trifluoromethyl)benzamide], the pest or weed control at 50 µg/cm2 in experiment [1] and in experiment [2] was 50 to 100% each time. Besides, the YFM rating entry in experiment [3] is “B (More than 0-Less than 80)”.
For `Cc1cc(C(/C=C(\F)c2ccc(C(=O)NC3(C(=O)N(C)CC(F)(F)F)CC3)c(C(F)(F)F)c2)C(F)(F)F)cc(C)c1Cl` (stereo not drawn) [F119, (Z)-4-(3-(4-Chloro-3,5-dimethylphenyl)-1,4,4,4-tetrafluorobut-1-en-1-yl)-N-(1-(methyl(2,2,2-trifluoroethyl)carbamoyl)cyclopropyl)-2-(trifluoromethyl)benzamide], the pest or weed control at 50 µg/cm2 in experiment [1] and in experiment [2] was 50 to 100% each time. The YFM rating result in experiment [3] is listed as “B (More than 0-Less than 80)”.
Consider `CN(CC(F)(F)F)C(=O)C1(NC(=O)c2ccc(/C(F)=C/C(c3ccc(Cl)c(Cl)c3)C(F)(F)F)cc2C(F)(F)F)CC1` (stereo not drawn) [F120, (Z)-4-(3-(3,4-Dichlorophenyl)-1,4,4,4-tetrafluorobut-1-en-1-yl)-N-(1-(methyl(2,2,2-trifluoroethyl)carbamoyl)cyclopropyl)-2-(trifluoromethyl)benzamide], for which the pest or weed control at 50 µg/cm2 in experiment [1] and in experiment [2] was 50 to 100% in each case. Moreover, the YFM rating entry in experiment [3] is recorded as “B (More than 0-Less than 80)”.
With `O=C(CNC(=O)c1ccc(/C(F)=C/C(c2cc(Cl)cc(Br)c2)C(F)(F)F)cc1C(F)(F)F)NCC(F)(F)F` (stereo not drawn) [F122, (Z)-4-(3-(3-Bromo-5-chlorophenyl)-1,4,4,4-tetrafluorobut-1-en-1-yl)-N-(2-oxo-2-((2,2,2-trifluoroethyl)amino)ethyl)-2-(trifluoromethyl)benzamide], the pest or weed control at 50 µg/cm2 in experiment [1] and in experiment [2] was 50 to 100% each time. In experiment [3], the YFM rating entry is listed as “B (More than 0-Less than 80)”.
For the compound `CN(CC(F)(F)F)C(=O)C1(NC(=O)c2ccc(/C(F)=C/C(c3ccc(Br)c(Br)c3)C(F)(F)F)cc2C(F)(F)F)CC1` (stereo not drawn) [F130, (Z)-4-(3-(3,4-Dibromophenyl)-1,4,4,4-tetrafluorobut-1-en-1-yl)-N-(1-(methyl(2,2,2-trifluoroethyl)carbamoyl)cyclopropyl)-2-(trifluoromethyl)benzamide], the pest or weed control at 50 µg/cm2 in experiment [1] and in experiment [2] was 50 to 100% throughout. In experiment [3], the YFM rating entry was “A (80-100)”.
For `O=C(NC1(C(=O)NCC(F)(F)F)CC1)c1ccc(/C(F)=C/C(c2ccc(F)c(Cl)c2)C(F)(F)F)cc1C(F)(F)F` (stereo not drawn) [F131, (Z)-4-(3-(3-Chloro-4-fluorophenyl)-1,4,4,4-tetrafluorobut-1-en-1-yl)-N-(1-((2,2,2-trifluoroethyl)carbamoyl)cyclopropyl)-2-(trifluoromethyl)benzamide], the pest or weed control at 50 µg/cm2 in experiment [1] and in experiment [2] was 50 to 100% in each case. Further, the YFM rating entry in experiment [3] was “A (80-100)”.
For `C[C@@H](NC(=O)c1ccc(/C(F)=C/C(c2ccc(F)c(Cl)c2)C(F)(F)F)cc1C(F)(F)F)C(=O)NCC(F)(F)F` (stereo partly drawn) [F132, 4-((Z)-3-(3-Chloro-4-fluorophenyl)-1,4,4,4-tetrafluorobut-1-en-1-yl)-N—((R)-1-oxo-1-((2,2,2-trifluoroethyl)amino)propan-2-yl)-2-(trifluoromethyl)benzamide], the pest or weed control at 50 µg/cm2 in experiment [1] and in experiment [2] was 50 to 100% each time. For the same compound, the YFM rating entry in experiment [3] was “B (More than 0-Less than 80)”.
As to `O=C(NC1(C(=O)NCC(F)(F)F)CC1)c1ccc(/C(F)=C/C(c2ccc(Cl)c(F)c2)C(F)(F)F)cc1C(F)(F)F` (stereo not drawn) [F136, (Z)-4-(3-(4-Chloro-3-fluorophenyl)-1,4,4,4-tetrafluorobut-1-en-1-yl)-N-(1-((2,2,2-trifluoroethyl)carbamoyl)cyclopropyl)-2-(trifluoromethyl)benzamide], the pest or weed control at 50 µg/cm2 in experiment [1] and in experiment [2] was 50 to 100% each time. In addition, the YFM rating entry in experiment [3] was “B (More than 0-Less than 80)”.
Turning to `CN(CC(F)(F)F)C(=O)CNC(=O)c1ccc(/C(F)=C/C(c2cc(Cl)cc(Br)c2)C(F)(F)F)cc1C(F)(F)F` (stereo not drawn) [F137, (Z)-4-(3-(3-Bromo-5-chlorophenyl)-1,4,4,4-tetrafluorobut-1-en-1-yl)-N-(2-(methyl(2,2,2-trifluoroethyl)amino)-2-oxoethyl)-2-(trifluoromethyl)benzamide], the pest or weed control at 50 µg/cm2 in experiment [1] and in experiment [2] was 50 to 100% throughout. The YFM rating entry in experiment [3] was “B (More than 0-Less than 80)”.
With `C[C@@H](NC(=O)c1ccc(/C(F)=C/C(c2ccc(Cl)c(Br)c2)C(F)(F)F)cc1C(F)(F)F)C(=O)NCC(F)(F)F` (stereo partly drawn) [F138, 4-((Z)-3-(3-Bromo-4-chlorophenyl)-1,4,4,4-tetrafluorobut-1-en-1-yl)-N—((R)-1-oxo-1-((2,2,2-trifluoroethyl)amino)propan-2-yl)-2-(trifluoromethyl)benzamide], the pest or weed control at 50 µg/cm2 in experiment [1] and in experiment [2] was 50 to 100% throughout. For the same compound, the YFM rating result in experiment [3] is recorded as “A (80-100)”.
Consider `O=C(NC1(C(=O)NCC(F)(F)F)CC1)c1ccc(/C(F)=C/C(c2ccc(Cl)c(Br)c2)C(F)(F)F)cc1C(F)(F)F` (stereo not drawn) [F139, (Z)-4-(3-(3-Bromo-4-chlorophenyl)-1,4,4,4-tetrafluorobut-1-en-1-yl)-N-(1-((2,2,2-trifluoroethyl)carbamoyl)cyclopropyl)-2-(trifluoromethyl)benzamide], for which the pest or weed control at 50 µg/cm2 in experiment [1] and in experiment [2] was 50 to 100% throughout. Moreover, the YFM rating result in experiment [3] is recorded as “A (80-100)”.
On to `C[C@@H](NC(=O)c1ccc(/C(F)=C/C(c2ccc(F)c(C(F)(F)F)c2)C(F)(F)F)cc1C(F)(F)F)C(=O)NCC(F)(F)F` (stereo partly drawn) [F141, N—((R)-1-Oxo-1-((2,2,2-trifluoroethyl)amino)propan-2-yl)-4-((Z)-1,4,4,4-tetrafluoro-3-(4-fluoro-3-(trifluoromethyl)phenyl)but-1-en-1-yl)-2-(trifluoromethyl)benzamide], for which the pest or weed control at 50 µg/cm2 in experiment [1] and in experiment [2] was 50 to 100% throughout. In experiment [3], the YFM rating result is recorded as “A (80-100)”.
For `C[C@@H](NC(=O)c1ccc(/C(F)=C/C(c2cc(Cl)c(C(F)F)c(Cl)c2)C(F)(F)F)cc1C(F)(F)F)C(=O)NCC(F)(F)F` (stereo partly drawn) [F142, 4-((Z)-3-(3,5-Dichloro-4-(difluoromethyl)phenyl)-1,4,4,4-tetrafluorobut-1-en-1-yl)-N—((R)-1-oxo-1-((2,2,2-trifluoroethyl)amino)propan-2-yl)-2-(trifluoromethyl)benzamide], the pest or weed control at 50 µg/cm2 in experiment [1] and in experiment [2] was 50 to 100% each time. In experiment [3], the YFM rating entry was “A (80-100)”.

(Values after patent US10251394B2, “Molecules having pesticidal utility, and intermediates, compositions, and processes, related thereto” (Dow AgroSciences LLC, priority 2016, dated 2019).)
